Measurements published in US20160175328A1, “COMPOSITIONS AND TREATMENTS OF HEART FAILURE IN NON-HUMAN MAMMAL ANIMALS” (CEVA SANTE ANIMALE SA, priority 2008, published 2016).
“Also recorded” adds a separate entry of the source.

Experiments:
[1] = test system: dogs in hyperaldosteronemia; experiment: Model for assessing the anti-aldosterone activity (urinary Na/K after aldosterone injection); assay type: in vivo, dog; details: for Urine flow rate: aldosterone treatment or aldosterone with spironolactone; for Urine Volume / log (Na × 10/K) / K / Na: N 15; for K / Na: urine; for reversal of the effect of aldosterone on the log ([Na+]urinary×10/[K+]urinary): first 6 hours and 12 hours after dosage
Protocol: They have been tattooed in advance for easy identification and situated in stainless steel individual boxes.
A preliminary study was performed in order to determining the ED80 value for the natriuretic effect of aldosterone on its own.
The dogs described above were allocated to different treatment groups (A, B, C, D, and E) and a rest period was left between treatments.
A negative control group A only received the pharmaceutical excipient. The positive control group B only received 3 μg/kg of aldosterone. […] 200 g food was then given immediately after treatment.
The samples were frozen and kept in the dark at approx. −80° C. […] Also, the urine was collected during the time periods ranging from T0-T6h; T6h-T12h and T12h-T24h.
After calibration and count, the quantity of aldosterone present in the sample was thus determined once counted.
The sodium and potassium contents in urines were determined using […]. […] According to this method 500 μL plasma were mixed with ethyl acetate (80/20, V/V) as solvents. […] The compounds and the internal standard (i.e. methyl-testosterone) were separated on a Kromasil C18 column.
A statistical analysis was performed with the STATGRAPHICS Plus version 4.1 software (Manugestics, Inc., Rockville, Md., U.S.A.). The results were presented such as averages±SD; p<0.05 is considered as significant.

[2] = test system: patients affected by severe heart failure; details: 25 mg spironolactone with ACEI, loop diuretics, sometimes digoxin; 284 dead of 822; placebo group 46%; cited from earlier work
[3] = Pharmacokinetic study with 22-14C spironolactone, dog; assay type: in vivo; details: dogs, after 4 hour oral administration of spironolactone
[4] = test system: dogs affected by heart failure; experiment: Clinical studies of spironolactone plus ACEI in dogs affected by heart failure; assay type: in vivo, dog; details: for reduction of the risk of mortality: oral spironolactone 2 mg/kg/day and a ACEI vs placebo and a ACEI; for Survival probability (absence of mortality): over 15 months (14-15 months), Placebo + ACEI 74%
Protocol: Multicentre, randomised, double-blind placebo-controlled clinical studies were conducted. An example of study concerned 221 dogs, the diagnosis of heart failure relying on persisting symptoms of cardiomegaly or cardiomyopathy after a first ACEI treatment. […] The 112-dog placebo group received a placebo in combination with an ACEI (for instance benazepril chlorhydrate in a dose of 0.25 mg/kg/day).
For gauging the effects of the treatment, both groups were examined five times, i.e., on the first day of treatment (D1), then on the 84th day (D84), […], 252nd day (D252) and 336th day (D336). This examination consisted of a clinical examination of the dogs, urine and blood analyses, and a radiograph. Moreover, an echocardiograph was taken on days D1, D168 and D336.
Also, the effects of the treatment were assessed on the symptoms such as cough and mobility, as well as on the prevention of symptoms such as dyspnoea, pulmonary edema, and tolerance to effort.

[5] = Pharmacokinetic study with 22-14C spironolactone, rat; assay type: in vivo; details: rats, after 4 hour oral administration of spironolactone
[6] = Pharmacokinetic study with 22-14C spironolactone, monkey; assay type: in vivo; details: monkeys, after 4 hour oral administration of spironolactone
[7] = Plasmatic potassium (kalemia) measured during the clinical studies; assay type: in vivo, dog; details: for Low and transient hyperkalemia (5.9 to 6.4 mmol/L), cases: group on spironolactone
Protocol: The plasmatic potassium concentrations (mmol/L) were measured during the treatments. […] Only sporadic case of low or moderate hyperkalemia could be observed and these events were transient. Indeed, these hyperkalemia events could only be observed a couple of times during examinations, and some of them were present on day D1, before the beginning of the treatment.

[8] = group B, dosage 0, aldosterone 3 μg/kg
[9] = group C, spironolactone dosage 0.8, aldosterone 3 μg/kg
[10] = group D, spironolactone dosage 2, aldosterone 3 μg/kg
[11] = group E, spironolactone dosage 8, aldosterone 3 μg/kg

## C[C@]12CCC(=O)C=C1CC[C@@H]1[C@@H]2[C@@H](O)C[C@]2(C=O)[C@@H](C(=O)CO)CC[C@@H]12 [Aldosterone]
[1]; aldosterone on its own
  increase of the urinary levels of K: 25%
  reduction of the elimination of Na: approx. 65%
[1]
  Urine flow rate: not significantly modified
[1]; [8]
  Urine Volume: 115 ± 109 mL
  log (Na × 10/K): 0.70 ± 0.22
  K: 116.6 mmol/L
  Na: 56.3 ± 29.9 mmol/L

## CC(=O)S[C@@H]1CC2=CC(=O)CC[C@]2(C)[C@H]2CC[C@@]3(C)[C@@H](CC[C@@]34CCC(=O)O4)[C@H]12 [Spironolactone, 7α-acetylthio-3-oxo-17α-pregn-4-ene-21,17-carbolactone]
[2]
  dead (mortality) in the spironolactone group: 35%
[3]
  plasma radioactivity percentage: 76%
[4]; 14-15 month, spironolactone 2 mg/kg/day + ACEI, against 25%
  morbidity-mortality rates: 11%
[4]; after 14-15 months, spironolactone 2 mg/kg/day + ACEI, reference group 20%
  mortality rates: 6%
[4]; dogs treated as of stage I of heart failure, approx. 3.5 years, spironolactone 2 mg/kg/day + ACEI, against 53%
  survival probabilities: 100%
[4]; duration of 3 years, spironolactone 2 mg/kg/day + ACEI, reference group 64%
  survival probabilities: 80%
[4]; group of dogs on spironolactone vs control group
  clinical symptoms (cough, mobility, dyspnoea, pulmonary edema, tolerance to effort, syncopes): improved symptoms such as cough and mobility were observed
[4]; over 3 years
  reduction of the risk of mortality: 59%
[4]; over 14-15 months
  reduction of the risk of mortality: 65%
[4]; spironolactone 2 mg/kg/day + ACEI, 109 dogs
  Survival probability (absence of mortality): 91%
[4]; spironolactone 2 mg/kg/day + ACEI, 109 dogs, listed as spironolactone
  Survival probability (absence of mortality): 91%
[4]; over 15 months, spironolactone 2 mg/kg/day + ACEI, 109 dogs, Placebo + ACEI 67%
  “survival” probability (absence of morbi-mortality): 84%
[5]
  plasma radioactivity percentage: 66%
[6]
  plasma radioactivity percentage: 33%
[7]; 2-month clinical study (4 analyses)
  Low and transient hyperkalemia (5.9 to 6.4 mmol/L), cases: 3
[7]; 3-month clinical study (6 analyses)
  Low and transient hyperkalemia (5.9 to 6.4 mmol/L), cases: 5
[7]; 12-month clinical study (5 analyses)
  Low and transient hyperkalemia (5.9 to 6.4 mmol/L), cases: 3
[7]; daily dose of spironolactone of 2 mg/kg/day, dogs
  variation in kalemia: did not cause any variation in kalemia or only low transient variations in kalemia
[7]; spironolactone 2 mg/kg/day and ACEI vs placebo and ACEI
  progression of average plasmatic potassium (kalemia), FIG. 9: stable kalemia
[1]; Canis lupus familiaris, read-out: ED50 (quantity of spironolactone to reach 50% of the maximum response), sigmoid Emax model, log ratio 0 to 6 hours
  ED50: 1.09 mg/kg
[1]
  Urine flow rate: not significantly modified
[1]; corresponded to 100% amplitude, E0 (control group) 0.527
  Emax-E0: 0.5625
[1]; [9]
  Urine Volume: 148 ± 154 mL
  log (Na × 10/K): 0.85 ± 0.24
  K: 91.8 mmol/L
  Na: 67.6 ± 49.3 mmol/L
[1]; [10]
  Urine Volume: 162 ± 103 mL
  log (Na × 10/K): 1.02 ± 0.21
  K: 74.2 mmol/L
  Na: 74.9 ± 40.2 mmol/L
[1]; [11]
  Urine Volume: 190 ± 195 mL
  log (Na × 10/K): 1.14 ± 0.18
  K: 88.9 mmol/L
  Na: 111.1 ± 67.9 mmol/L
[1]; higher dose of spironolactone, 8 mg/kg
  elimination (excretion) of Na: other increases in the elimination of Na were observed; also recorded: Further increases in Na excretion
[1]; log ([Na+]urinary×10/[K+]urinary), Emax model
  Emax (maximum possible effect of spironolactone): 1.089
[1]; sigmoid Emax model, log ratio 0 to 6 hours
  ED50 (quantity of spironolactone to reach 50% of the maximum response): 1.08 ± 0.28 mg/kg
[1]; spironolactone 0.8 mg/kg
  natriuretic responses: no effect on certain dogs
[1]; spironolactone 2 mg/kg
  natriuretic responses: completely reversed
  reversal of the effect of aldosterone on the log ([Na+]urinary×10/[K+]urinary): complete reversal
[1]; spironolactone 8 mg/kg
  reversal of the effect of aldosterone on the log ([Na+]urinary×10/[K+]urinary): complete reversal
[1]; spironolactone 0.8, 2 and 8 mg/kg with aldosterone
  Potassium excretion: spared up to 2 mg per kg but not after that
[1]; spironolactone approx. 2 mg/kg
  E(2mg/kg)−E0: 0.4933
